According to patent US4877881A, “Process of preparing pyrazoles, isoxazoles and analogs thereof having activity as 5-lipoxygenase inhibitors” (Warner-Lambert Company, priority 1988, dated 1989):
pIC50: −log10 of the molar value.

Legend:
[1] = molecular target: T1, 5-lipoxygenase (Rattus norvegicus, UniProt P12527); test: ARBL Whole Cell 5-Lipoxygenase Assay in RBL-1 cells (LTB4 RIA); type: cell-based; conditions: RBL-1 intact cell 5-lipoxygenase; A23187 5 μM
T1 construct: ARBL/ARBC Whole Cell 5-Lipoxygenase and Cyclooxygenase Assays; endogenous in cells; host or cells: RBL-1 rat basophilic leukemia cells (American Type Culture Collection)
T1 sequence (P12527 1-673): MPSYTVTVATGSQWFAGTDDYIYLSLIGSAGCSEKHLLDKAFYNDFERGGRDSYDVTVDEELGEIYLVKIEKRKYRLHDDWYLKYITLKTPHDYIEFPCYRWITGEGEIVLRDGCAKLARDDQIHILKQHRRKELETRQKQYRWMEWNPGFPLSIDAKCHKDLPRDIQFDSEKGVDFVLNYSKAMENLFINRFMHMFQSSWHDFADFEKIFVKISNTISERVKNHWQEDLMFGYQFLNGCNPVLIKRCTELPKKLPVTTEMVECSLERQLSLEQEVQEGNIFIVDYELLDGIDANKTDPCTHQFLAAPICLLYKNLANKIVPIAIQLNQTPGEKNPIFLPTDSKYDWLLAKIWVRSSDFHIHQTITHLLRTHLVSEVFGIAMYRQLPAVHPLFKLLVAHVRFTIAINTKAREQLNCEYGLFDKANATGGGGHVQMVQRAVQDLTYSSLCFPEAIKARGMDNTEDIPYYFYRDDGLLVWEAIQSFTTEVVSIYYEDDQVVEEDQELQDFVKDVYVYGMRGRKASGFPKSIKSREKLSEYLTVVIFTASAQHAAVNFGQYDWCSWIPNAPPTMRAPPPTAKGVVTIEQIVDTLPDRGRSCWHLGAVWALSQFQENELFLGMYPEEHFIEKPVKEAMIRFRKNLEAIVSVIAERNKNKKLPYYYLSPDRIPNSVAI
Protocol: (§1) ARBL/ARBC Whole Cell 5-Lipoxygenase and Cyclooxygenase Assays
(§2) The rat basophilic leukemia cell line (RBL-1) was obtained from the American Type Culture Collection (Rockville, Md.).
(§3) Radioimmuno assay (RIA) kits of LTB4 and PGF2α were obtained from Amersham (Arlington Heights, Ill.) and Seragen (Boston, Mass.) respectively.
(§4) All tissue culture media were obtained from GIBO (Gran Island, N.Y.).
(§5) RBL-1 cells were grown in culture (suspension) in Eagle's minimum essential medium supplemented with 12% fetal bovine serum and 1:100 antibiotic-antimycotic mixture at 37° C. in an incubator supplied with air-5% carbon dioxide. Cells were harvested by centrifugation. They were washed with cold phosphate buffered saline pH 7.4 (PBS; NaCl, 7.1 g; Na2 HOP4, 1.15 g; KH2 PO4, 0.2 g; and KCl, 0.2 g/L). […] Calcium ionophore A23187 (5 μM) was added and cells were incubated for seven minutes at 37° C. The reaction was stopped by chilling the tubes in ice for ten minutes. Cells were separated by centrifugation and the supernatant was stored at -20°. Aliquots (100 μl) were analyzed for LTB4 and PGF2α using radioimmuno assay kits as provided by the supplier.

[2] = molecular target: T2, cyclooxygenase (Rattus norvegicus, UniProt Q63921); test: ARBC Whole Cell Cyclooxygenase Assay in RBL-1 cells (PGF2α RIA); type: cell-based; conditions: RBL-1 intact cell cyclooxygenase; A23187 5 μM
T2 construct: RBL-1 intact cell cyclooxygenase IC50 values; endogenous in cells; host or cells: RBL-1 rat basophilic leukemia cells (American Type Culture Collection)
T2 sequence (Q63921 27-602): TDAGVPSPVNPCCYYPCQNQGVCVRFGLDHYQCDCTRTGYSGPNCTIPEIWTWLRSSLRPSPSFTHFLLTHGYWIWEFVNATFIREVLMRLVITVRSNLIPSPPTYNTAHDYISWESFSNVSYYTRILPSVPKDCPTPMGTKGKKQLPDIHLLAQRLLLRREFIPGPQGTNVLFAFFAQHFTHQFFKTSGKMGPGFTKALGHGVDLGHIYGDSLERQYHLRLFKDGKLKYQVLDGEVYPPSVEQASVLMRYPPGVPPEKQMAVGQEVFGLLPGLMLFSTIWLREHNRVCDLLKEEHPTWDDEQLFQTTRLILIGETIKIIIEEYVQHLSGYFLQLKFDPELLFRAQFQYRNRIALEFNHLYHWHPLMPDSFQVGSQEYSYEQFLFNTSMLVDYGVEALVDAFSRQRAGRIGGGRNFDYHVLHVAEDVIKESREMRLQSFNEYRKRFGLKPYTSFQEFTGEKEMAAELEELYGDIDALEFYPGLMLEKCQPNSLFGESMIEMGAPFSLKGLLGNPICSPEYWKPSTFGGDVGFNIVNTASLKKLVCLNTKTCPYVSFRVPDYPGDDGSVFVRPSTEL
Protocol: as §1, §2, §3, §4, §5

SMILES | pIC50 [1] | pIC50 [2]
COc1cc(C=Cc2cc(C(F)(F)F)[nH]n2)ccc1O [Example 10A, 3-[β-(4'-Hydroxy-3'-methoxyphenyl)ethenyl]-5-trifluoromethylpyrazole] | 5.42 | 5.35
CCOC(=O)Cn1nc(C)cc1/C=C/c1cc(OC)c(O)c(OC)c1 [Example 10D, (E)-5-[β-(4'-Hydroxy-3',5'-dimethoxyphenyl)ethenyl]3-methyl-1H-pyrazole-1-acetic acid, ethyl ester] | 6.52 | < 4.52
COC(=O)Cn1nc(C=Cc2cc(C(C)(C)C)c(O)c(C(C)(C)C)c2)cc1C [Example 10G-1, 3-[β-(4'-Hydroxy-3',5'-di-t-butylphenyl)ethenyl]-5-methyl-1H-pyrazole-1-acetic acid, methyl ester] | 5.35 | < 4.52
COC(=O)Cn1nc(C)cc1C=Cc1cc(C(C)(C)C)c(O)c(C(C)(C)C)c1 [Example 10G-2, 5-[β-(4'-hydroxy-3',5'-di-t-butylphenyl)ethenyl]-3-methyl-1H-pyrazole-1-acetic acid, methyl ester] | 5.39 | < 4.52
COC(=O)Cn1nc(C=Cc2cc(OC)c(O)c(OC)c2)cc1C [Example 10H, 3-[β-(4'-Hydroxy-3',5'-dimethoxyphenyl)ethenyl]-5-methyl-1H-pyrazole-1-acetic acid, methyl ester] | 5.02 | < 4.52
COC(=O)Cn1nc(C)cc1C=Cc1ccc(O)c(OC)c1 [Example 10I, 5-[β-(4'-Hydroxy-3'-methoxyphenyl)ethenyl]-3-methyl-1H-pyrazole-1-acetic acid methyl ester] | < 5.00 | < 4.60
COC(=O)Cn1nc(C=Cc2ccc(O)c(OC)c2)cc1C [Example 10J, 3-[β-(4'-Hydroxy-3'-methoxyphenyl)ethenyl]-5-methyl-1H-pyrazole-1-acetic acid, methyl ester] | < 5.00 | 4.52
COc1cc(C=Cc2cc(C)n(CC(=O)O)n2)ccc1O [Example 10K, 3-[β-(4'-Hydroxy-3'-methoxyphenyl)ethenyl]-5-methyl-1H-pyrazole-1-acetic acid] | < 4.70 | –
COc1cc(C=Cc2cc(C)[nH]n2)ccc1OC(C)=O [Example 37, 3-[β-(4'-Acetoxy-3'-methoxyphenyl)ethenyl]-5-methylpyrazole] | 5.46 | –

Other lines, results leading:

pIC50 [1] | pIC50 [2] | SMILES
< 4.70 | – | COc1cc(C=Cc2cc(C)nn2CC(=O)O)ccc1O [Example 10L, 5-[β-(4'-Hydroxy-3'-methoxyphenyl)ethenyl]-3-methyl-1H-pyrazole-1-acetic acid]
< 4.52 | < 4.52 | COc1cc(C=Cc2cc(C)nn2CC(=O)O)cc(OC)c1O [Example 10M, 5-[β-(4'-Hydroxy-3',5'-dimethoxyphenyl)ethenyl]-3-methyl-1H-pyrazole-1-acetic acid]
< 4.70 | < 4.52 | COc1cc(C=Cc2cc(C)n(CC(=O)O)n2)cc(OC)c1O [Example 10N, 3-[β-(4'-hydroxy-3',5'-dimethoxyphenyl)ethenyl]-5-methyl-1H-pyrazole-1-acetic acid]
4.92 | < 4.52 | Cc1cc(C=Cc2cc(C(C)(C)C)c(O)c(C(C)(C)C)c2)n(CC(=O)O)n1 [Example 10P, 5-[β-(4'-Hydroxy-3',5'-di-t-butylphenyl)ethenyl]-3-methyl-1H-pyrazole-1-acetic acid]
< 4.52 | < 4.52 | Cc1cc(C=Cc2cc(C(C)(C)C)c(O)c(C(C)(C)C)c2)nn1CC(=O)O [Example 10Q, 3-[β-(4'-Hydroxy-3',5'-di-t-butylphenyl)ethenyl]-5-methyl-1H-pyrazole-1-acetic acid]
> 6.00 | 5.27 | COc1cc(C=Cc2cc(-c3ccccc3)no2)cc(OC)c1O [Example 32D, 5-[β(4'-Hydroxy-3',5'-dimethoxyphenyl)ethenyl]-3-phenylisoxazole]
4.67 | – | COc1cc(C=Cc2cc(CCO)on2)ccc1O [Example 36A, 3-[β-(4'-Hydroxy-3'-methoxyphenyl)ethenyl]-5-(2'-hydroxyethyl)isoxazole]
